# Experimental data reported in patent US11214803B2, “Modulators of YAP1 expression” (Ionis Pharmaceuticals, Inc., priority 2019, dated 2022).
# Strand notation (5' to 3'): a small letter for the sugar, then the base; units joined by * are phosphorothioate-linked, units joined directly phosphodiester-linked; [ ] holds rarer units or linkages, { } end groups; capitals alone tell only the bases. k = constrained ethyl (cEt); [5mC] = 5-methylcytosine; d = 2'-deoxy (DNA)
# Tested on: Yap1 mRNA
# Experiment: Antisense inhibition of human Yap1 in A-431 cells by cEt gapmers, single dose (Example 1, RTS4814)
# Type: cell-based
# Description: Modified oligonucleotides were designed to target a Yap1 nucleic acid and were tested for their effect on Yap1 mRNA level in vitro. The modified oligonucleotides were tested in a series of experiments that had similar culture conditions. Cultured A-431 cells at a density of 5,000 cells per well were treated using free uptake with 2,000 nM of modified oligonucleotide. After a treatment period of approximately 48 hours, RNA was isolated from the cells and Yap1 mRNA levels were measured by quantitative real-time RTPCR. Human primer probe set RTS4814 (forward sequence […], designated herein as SEQ ID NO.: 11; reverse sequence […], designated herein as SEQ ID NO.: 12; probe sequence […], designated herein as SEQ ID NO.: 13) was used to measure mRNA levels. Yap1 mRNA levels were normalized to total RNA content, as measured by RIBOGREEN®. Results are presented in the tables below as percent control of the amount of Yap1 mRNA relative to untreated control cells (% UTC). The modified oligonucleotides with percent control values marked with an asterisk (*) target the amplicon region of the primer probe set. Additional assays may be used to measure the potency and efficacy of the modified oligonucleotides targeting the amplicon region.
# The newly designed modified oligonucleotides in the Tables below were designed as 3-10-3 cEt gapmers. The gapmers are 16 nucleosides in length, wherein the central gap segment comprises of ten 2′-deoxynucleosides and is flanked by wing segments on the 5′ direction and the 3′ direction comprising three nucleosides each. Each nucleoside in the 5′ wing segment and each nucleoside in the 3′ wing segment has a cEt sugar modification. The internucleoside linkages throughout each gapmer are phosphorothioate (P═S) linkages. All cytosine residues throughout each gapmer are 5-methylcytosines.
# “Start site” indicates the 5′-most nucleoside to which the gapmer is targeted in the human gene sequence. “Stop site” indicates the 3′-most nucleoside to which the gapmer is targeted human gene sequence. […] Activity of the modified oligonucleotide may be defined in a different experiment.
# [1] = Table 1, A-431 cells, free uptake, 2,000 nM, approximately 48 hours, RTS4814, Yap1 mRNA relative to untreated control cells
# [2] = A-431 cells, 5,000 cells per well, free uptake, 2,000 nM modified oligonucleotide, approx. 48 hours, RTS4814, normalized to RIBOGREEN, Table 3
# [3] = Table 2, A-431 cells, free uptake, 2,000 nM, approximately 48 hours, RTS4814, Yap1 mRNA relative to untreated control cells
substance,measurement,setting,value
715406 (k[5mC]*kT*kT*dG*dA*dA*dG*dA*dA*dG*dG*dA*dG*kT*k[5mC]*kG; antisense) [Compound 715406],YAP1 (% UTC),[1],58 % UTC
715582 (kG*kT*k[5mC]*dA*dA*dG*d[5mC]*d[5mC]*dT*dG*dT*d[5mC]*dT*kG*kG*kA; antisense) [Compound 715582],YAP1 (% UTC),[2],33 % UTC
715511 (antisense kT*k[5mC]*k[5mC]*dT*dG*dA*d[5mC]*dA*dT*dT*dT*dT*dG*kG*kA*kG) [Compound 715511],YAP1 (% UTC),[1],107 % UTC
715567 (kG*kG*kT*dA*dG*dG*dA*dT*dA*dA*dA*dT*dG*kA*kA*kT; antisense) [Compound 715567],YAP1 (% UTC),[2],99 % UTC
715458 (antisense k[5mC]*kG*kA*dG*dA*dG*dT*dG*dA*dT*dA*dG*dG*kT*kG*k[5mC]) [Compound 715458],YAP1 (% UTC),[3],58 % UTC
715575 (k[5mC]*k[5mC]*kT*dT*dT*dA*d[5mC]*d[5mC]*dA*dA*dA*dA*d[5mC]*kG*kA*kG; antisense) [Compound 715575],YAP1 (% UTC),[3],134 % UTC
715425 (kG*kT*k[5mC]*d[5mC]*dT*dG*d[5mC]*d[5mC]*dA*dT*dG*dT*dT*kG*kT*kT; antisense) [Compound 715425],YAP1 (% UTC),[3],98 % UTC
715616 (antisense kG*kA*k[5mC]*dG*dG*dA*dT*dA*dA*dA*dA*dA*dT*kT*kA*k[5mC]) [Compound 715616],YAP1 (% UTC),[1],95 % UTC
715602 (antisense kA*k[5mC]*kA*dG*dA*dA*dT*dT*d[5mC]*d[5mC]*d[5mC]*dA*dA*kG*k[5mC]*kT) [Compound 715602],YAP1 (% UTC),[3],110 % UTC
715495 (antisense kA*k[5mC]*kA*dG*dA*dG*dG*dT*dG*d[5mC]*dT*dA*dG*k[5mC]*kT*kG) [Compound 715495],YAP1 (% UTC),[2],80 % UTC
715435 (antisense kG*kG*kT*d[5mC]*dT*dT*dG*dT*dT*d[5mC]*dT*dT*dA*kT*kG*kG) [Compound 715435],YAP1 (% UTC),[2],36 % UTC
715490 (antisense k[5mC]*k[5mC]*kA*dA*d[5mC]*dT*dA*dT*dT*dA*d[5mC]*dT*dT*k[5mC]*kA*kT) [Compound 715490],YAP1 (% UTC),[1],38 % UTC
715633 (kG*kT*kG*dA*dT*dA*dG*dG*dT*dG*d[5mC]*d[5mC]*dA*k[5mC]*kT*kA; antisense) [Compound 715633],YAP1 (% UTC),[2],78 % UTC
715496 (antisense k[5mC]*k[5mC]*k[5mC]*dT*dT*dG*dA*dA*dA*dA*dT*dA*dA*kG*kG*kG) [Compound 715496],YAP1 (% UTC),[1],124 % UTC
715576 (kA*kA*k[5mC]*d[5mC]*dT*dT*dT*dA*d[5mC]*d[5mC]*dA*dA*dA*kA*k[5mC]*kG; antisense) [Compound 715576],YAP1 (% UTC),[2],80 % UTC
715499 (antisense kT*kA*kT*dG*dA*dA*d[5mC]*d[5mC]*d[5mC]*dT*dT*dG*dA*kA*kA*kA) [Compound 715499],YAP1 (% UTC),[1],126 % UTC
715613 (antisense kA*kT*kT*dA*d[5mC]*dT*dT*dT*dA*dA*dG*d[5mC]*d[5mC]*kA*k[5mC]*kA) [Compound 715613],YAP1 (% UTC),[1],85 % UTC
715543 (kA*k[5mC]*kT*dA*d[5mC]*dT*dT*dG*dA*dA*dG*dA*dA*k[5mC]*kT*kA; antisense) [Compound 715543],YAP1 (% UTC),[2],72 % UTC
715464 (antisense k[5mC]*k[5mC]*kA*d[5mC]*dA*dT*dT*dT*dG*dT*d[5mC]*d[5mC]*d[5mC]*kA*kG*kG) [Compound 715464],YAP1 (% UTC),[3],89 % UTC
715617 (antisense kA*kA*kG*dA*d[5mC]*dG*dG*dA*dT*dA*dA*dA*dA*kA*kT*kT) [Compound 715617],YAP1 (% UTC),[3],98 % UTC
715546 (kT*kG*kA*d[5mC]*d[5mC]*dA*dA*d[5mC]*dT*dA*d[5mC]*dT*dT*kG*kA*kA; antisense) [Compound 715546],YAP1 (% UTC),[2],59 % UTC
715561 (k[5mC]*kA*k[5mC]*dA*dA*d[5mC]*dT*d[5mC]*dA*dG*dA*d[5mC]*dA*kG*kG*kG; antisense) [Compound 715561],YAP1 (% UTC),[2],69 % UTC
715453 (antisense kA*kG*kG*dT*dG*d[5mC]*d[5mC]*dA*d[5mC]*dT*dG*dT*dT*kA*kA*kG) [Compound 715453],YAP1 (% UTC),[2],59 % UTC
715612 (antisense kT*kA*k[5mC]*dT*dT*dT*dA*dA*dG*d[5mC]*d[5mC]*dA*d[5mC]*kA*kT*kG) [Compound 715612],YAP1 (% UTC),[2],77 % UTC
715554 (kT*kA*kT*dT*d[5mC]*dA*dG*d[5mC]*dA*dG*d[5mC]*dT*dT*kA*kT*kA; antisense) [Compound 715554],YAP1 (% UTC),[3],93 % UTC
715539 (kA*kG*kA*dT*d[5mC]*dT*d[5mC]*dA*d[5mC]*dT*dG*dA*d[5mC]*k[5mC]*kT*kA; antisense) [Compound 715539],YAP1 (% UTC),[3],102 % UTC
715500 (antisense kA*kA*kG*d[5mC]*d[5mC]*dT*dT*dA*dG*dA*dG*dT*d[5mC]*kA*kA*kT) [Compound 715500],YAP1 (% UTC),[3],30 % UTC
715470 (antisense kT*k[5mC]*kT*dA*dG*d[5mC]*dT*dT*dG*dG*dT*dG*dG*k[5mC]*kA*kG) [Compound 715470],YAP1 (% UTC),[3],83 % UTC
715478 (antisense kA*k[5mC]*k[5mC]*dA*dT*dT*dA*dT*dT*dA*d[5mC]*dT*d[5mC]*k[5mC]*kT*kG) [Compound 715478],YAP1 (% UTC),[1],7 % UTC
715421 (kG*kT*kG*dA*dT*dT*dT*dA*dA*dG*dA*dA*dG*kT*kA*kT; antisense) [Compound 715421],YAP1 (% UTC),[1],71 % UTC
715532 (kT*kA*kA*d[5mC]*dA*dA*d[5mC]*d[5mC]*dT*dG*dG*dT*dT*kT*kG*kT; antisense) [Compound 715532],YAP1 (% UTC),[1],91 % UTC
715440 (antisense k[5mC]*kT*kG*dG*dT*dT*d[5mC]*dA*dT*dG*dG*d[5mC]*dA*kA*kA*kA) [Compound 715440],YAP1 (% UTC),[3],85 % UTC
715516 (k[5mC]*k[5mC]*kT*dA*dT*dG*dA*dG*dT*d[5mC]*dA*dA*d[5mC]*k[5mC]*kT*kG; antisense) [Compound 715516],YAP1 (% UTC),[2],77 % UTC
715600 (antisense kA*kA*kT*dT*d[5mC]*d[5mC]*d[5mC]*dA*dA*dG*d[5mC]*dT*dA*k[5mC]*k[5mC]*k[5mC]) [Compound 715600],YAP1 (% UTC),[2],82 % UTC
715449 (antisense kT*kT*k[5mC]*dT*d[5mC]*dA*dA*dT*dT*d[5mC]*d[5mC]*dT*dG*kA*kG*kA) [Compound 715449],YAP1 (% UTC),[3],124 % UTC
715486 (antisense kT*kA*k[5mC]*dT*dT*d[5mC]*dA*dT*dA*dG*d[5mC]*dT*dT*kA*kT*kA) [Compound 715486],YAP1 (% UTC),[2],27 % UTC
715471 (antisense kT*kA*kT*d[5mC]*dT*dA*dG*d[5mC]*dT*dT*dG*dG*dT*kG*kG*k[5mC]) [Compound 715471],YAP1 (% UTC),[2],36 % UTC
715498 (antisense kT*kG*kA*dA*d[5mC]*d[5mC]*d[5mC]*dT*dT*dG*dA*dA*dA*kA*kT*kA) [Compound 715498],YAP1 (% UTC),[2],91 % UTC
715597 (antisense k[5mC]*kT*kG*dG*dT*dT*d[5mC]*dA*dT*dG*dG*d[5mC]*dT*kG*kA*kA) [Compound 715597],YAP1 (% UTC),[2],89 % UTC
715460 (antisense kA*kT*k[5mC]*dT*d[5mC]*dG*dA*dG*dA*dG*dT*dG*dA*kT*kA*kG) [Compound 715460],YAP1 (% UTC),[1],114 % UTC
715434 (antisense kT*k[5mC]*kT*dT*dG*dT*dT*d[5mC]*dT*dT*dA*dT*dG*kG*kT*kT) [Compound 715434],YAP1 (% UTC),[3],31 % UTC
715413 (k[5mC]*kA*kT*dG*d[5mC]*dT*dG*dT*dG*dG*dA*dG*dT*k[5mC]*kA*kG; antisense) [Compound 715413],YAP1 (% UTC),[3],96 % UTC
715574 (kT*kA*k[5mC]*d[5mC]*dA*dA*dA*dA*d[5mC]*dG*dA*dG*dG*kG*kT*k[5mC]; antisense) [Compound 715574],YAP1 (% UTC),[1],118 % UTC
715422 (kA*kT*kG*dT*dT*dG*dT*dT*dG*dT*d[5mC]*dT*dG*kA*kT*k[5mC]; antisense) [Compound 715422],YAP1 (% UTC),[3],57 % UTC
715451 (antisense k[5mC]*kA*kT*dT*dG*dT*dT*d[5mC]*dT*d[5mC]*dA*dA*dT*kT*k[5mC]*k[5mC]) [Compound 715451],YAP1 (% UTC),[1],75 % UTC
715492 (antisense kG*k[5mC]*kT*dA*dG*d[5mC]*dT*dG*dG*dT*dG*d[5mC]*d[5mC]*kA*k[5mC]*kT) [Compound 715492],YAP1 (% UTC),[2],76 % UTC
715503 (antisense k[5mC]*k[5mC]*k[5mC]*d[5mC]*dA*dG*dA*d[5mC]*dT*dT*dA*dA*dT*kT*k[5mC]*kA) [Compound 715503],YAP1 (% UTC),[3],136 % UTC
